{"source": "patent US9856259B2", "about": "“Heterocyclic compounds and uses thereof” (Plexxikon Inc., priority 2014, dated 2018)", "key": {"BRD4-BD12": {"target": "T1, BRD4-BD12 (Homo sapiens, UniProt O60885)", "T1 construct": "dual bromodomains (BRD4-BD12 (1-477), BRD4-BD12 (1-472)); six-His tag (N); made in house; host or cells: E. coli BL21-CodonPlus (DE3)", "assay": "Alphascreen binding assay, BRD4(1 2) H4", "details": "BRD4 dual bromodomains with acetylated Histone 4 peptide, read-out: Biochemical activity (IC50 μM) BRD4(1 2) H4", "protocol": "Binding of compounds of formula (I) with bromodomain 2, 3 4 was assessed using Alphascreen binding assay. The inhibition of the interaction between bromodomain and its acetylated target protein (Filippakopoulos P et al. 2012) was measured quantitatively using recombinant BRD proteins, an acetylated Histone 4 peptide and AlphaScreen™ technology. In absence of inhibition the BRD protein bound to AlphaScreen™ nickel chelate acceptor beads can interact with the acetylated Histone 4 peptide which is immobilized by the AlphaScreen™ Streptavidin coated beads. This interaction brings donor and acceptor beads in proximity. The close proximity allows the singlet oxygen produced by laser excitation of the donor beads to reach the acceptor beads and generate a luminescence signal. BRD inhibitors result in a decrease in the proximity signal through an inhibition of the BRD acetylated peptide interaction.\nRecombinant human bromodomains containing the N-terminal bromodomain (BRD2-BD1 (71-194), BRD3-BD1 (24-144) and BRD4-BD1 (44-164)) or dual bromodomains (BRD4-BD12 (1-477), BRD4-BD12 (1-472)) were prepared and purified as described in protein expression and purification session. The peptide is human Histone H41-21K5AcK8AcK12AcK16Ac-Biotin (Anaspec Calif., USA).\nProtocol for BRD2, BRD3 and BRD4 assay: All components are prepared in buffer composed of 50 mM HEPES pH 7.5, 100 mM NaCl, 0.01% BSA, 0.01% Triton X-100, 2 mM DTT. 7 μL of Bromodomain protein and 7 μL of peptide are added to wells containing 1 μL of various concentrations of test compounds of formula (I) or DMSO vehicle in an Alphaplate (PerkinElmer Ga., USA) and incubated for 1 hour at room temperature. 4 μL donor and acceptor bead mixture is then added with final concentrations of 7.5 μg/ml. 30 minutes after bead addition, Alpha signal is read on the Envision spectrometer (λEx 680 nm, λEm 520-620 nm). Final concentrations of bromodomain proteins and peptide are as shown below.\nAll data was normalized to the mean of 16 high and 16 low control wells on each plate. A four parameter curve fit of the following formula was then applied: Y=a+(b−a)/(1+(x/c)^d) Where ‘a’ is the minimum, ‘b’ is the maximum, ‘c’ is the pIC50 and ‘d’ is the Hill slope. Protein Expression and Purification\nRecombinant human bromodomains containing the N-terminal bromodomain (BRD2-BD1 (71-194), BRD3-BD1 (24-144) and BRD4-BD1 (44-164)) or dual bromodomains (BRD4-BD12 (1-477), BRD4-BD12 (1-472)) were expressed in E. coli cells (in a modified pET vector) with an N-terminal six-His tag and purified using a combination of both IMAC (Ni-affinity) and size exclusion chromatography steps.\nRecombinant BRD proteins were expressed using the E. coli strain BL21-CodonPlus (DE3) (Agilent Technologies CA, USA). Cells were grown in Terrific Broth (TB) media to an OD600 of 1.2 at 37° C. at which temperature was reduced to 25° C., protein was induced with 1.0 mM IPTG for 12-18 hours and harvested by centrifugation at 8000×g for 20 minutes. Cells were re-suspended in 0.1M KPO4 pH 8.0, 250 mM NaCl, 10% Glycerol, 0.75% NP-40, 25 mM Imidazole, 5 mM BME with 0.2 mg/ml Lysosyme, 2.0 mM PMSF, 25 μg/ml DNAse I, incubated on ice for 30 minutes and lyzed with a cell disruptor (MicroFluidics MA, USA). The lysate was clarified by centrifugation at 20,000×g for 2 hours. The protein was captured with Ni-NTA resin (Life Technologies, USA). Contaminating proteins were washed off with 25 mM Tris-HCl pH 8.3, 250 mM NaCl, 12% Glycerol and 50 mM Imidazole. Following 3× wash steps, protein was eluted step wise using a 50 mM HEPES pH 7.5, 500 mM NaCl and 400 mM Imidazole. The protein was further purified using Gel Filtration column 26/600 Superdex 200 (GE Biosciences N.J., USA) in 50 mM HEPES pH 7.5, 250 mM NaCl. The protein was aliquoted and flash-frozen in liquid Nitrogen."}, "MV-4-11": {"tested_on": "MV-4-11", "assay": "Oncology cell growth assay, MV-4-11 3 d growth", "assay_type": "cell-based", "details": "Homo sapiens, MV4-11; MV-4-11 cells, 72 hours, CellTiter Glo; read-out: Cell activity (IC50 μM) MV-4-11 3 d-Growtb", "protocol": "In this study, we test compounds in different cancer cell lines. MV-4-11 and MOLM-13 are AML cell lines harboring a MLL-AF4 and MLL-AF9 translocation, respectively. MM.1S is a multiple myeloma cell line. SK—N-AS, IMR-32 and SK-N-BE(2) are neuroblastoma cell lines. IMR-32 and SK-N-BE(2) cell lines harbor MYCN amplifications.\nMV-4-11, MM.1S, IMR-32, SK-N-AS and SK-N-BE(2) were obtained from ATCC (IL, USA) and MOLM-13 were purchased from DSMZ (Braunschweig, German). Cells are cultured as recommended by their sources. For growth inhibition studies 3000 cells are seeded in wells of a 96-well plate in 75 μL of culture media. After several hours, growth media containing compounds of formula (I) are added to the wells. Compound at a maximal concentration of 5 mM was serially diluted 1:3 for a total of 8 point titration with DMSO as a control. A 1 μL aliquot of each dilution point is added to 249 μL growth media and 75 μL is added to each well containing cells, providing 10 μM compound at the maximum concentration point. The final concentration of DMSO in all wells is 0.2%. Cells are incubated for 72 hours, and 25 μL of CellTiter Glo Reagent (Promega Ga., USA) is added to each well. Plates are shaken for approximately 10 minutes and chemiluminescent signal is read on Tecan microplate reader. The measured luminescence correlates directly with cell number.\nAll data is normalized to the mean of eight DMSO high control wells on each plate. A four parameter curve fit of the following formula was then applied: Y=a+(b−a)/(1+(x/c)^d) Where ‘a’ is the minimum, ‘b’ is the maximum, ‘c’ is the pIC50 and ‘d’ is the Hill slope. […] Myc Reporter Assay"}, "[1]": {"tested_on": "cancer cell lines / MV-4-11 Myc reporter cell line", "assay": "Bromodomain cell assays of Example 8 (at least one of them)", "assay_type": "cell-based", "details": "Homo sapiens, MV4-11; at least one of the bromodomain cell assays described in Example 8", "method_in_brief": "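Antiproliferation: 3000 cells/well, 8-point 1:3 titration from 10 µM final, 0.2% DMSO, 72 h, CellTiter Glo luminescence. Myc reporter: MV-4-11 with E-box firefly luciferase, 25,000 cells, same titration, 24 h; One-Glo luminescence with CellTiter-Fluo viability; 10 µM JQ1 as low control. pIC50 from four-parameter fit.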"}}, "data": [{"smiles": "COC(=O)C1(c2ccc(-c3cn([C@@H](C)c4ccccn4)c4nc(-c5c(C)noc5C)cnc34)cc2)CC1", "note": "[Compound P-2053, methyl 1-[4-[3-(3,5-dimethylisoxazol-4-yl)-5-[(1S)-1-(2-pyridyl)ethyl]pyrrolo[2,3-b]pyrazin-7-yl]phenyl]cyclopropanecarboxylate]", "values": [{"measurement": "IC50", "setting": "BRD4-BD12", "result": "≤ 1", "unit": "µM"}, {"measurement": "IC50", "setting": "MV-4-11", "result": "≤ 1", "unit": "µM"}, {"measurement": "IC50", "setting": "[1]", "result": "< 10", "unit": "µM"}]}, {"smiles": "Cc1noc(C)c1-c1ccc2c(-c3ccc(C(=O)O)cc3)nn(C(c3ccccc3)c3ccccn3)c2c1", "note": "(stereo not drawn) [Compound P-2007, 4-[6-(3,5-dimethylisoxazol-4-yl)-1-[phenyl(2-pyridyl)methyl]indazol-3-yl]benzoic acid]", "values": [{"measurement": "IC50", "setting": "BRD4-BD12", "result": "≤ 1", "unit": "µM"}, {"measurement": "IC50", "setting": "MV-4-11", "result": "≤ 1", "unit": "µM"}, {"measurement": "IC50", "setting": "[1]", "result": "< 10", "unit": "µM"}]}, {"smiles": "Cc1noc(C)c1-c1ccc2c(-c3cnn(CC(F)(F)F)c3)nn(CC3CCC(F)(F)CC3)c2c1", "note": "[Compound P-2002, 4-[1-[(4,4-difluorocyclohexyl)methyl]-3-[1-(2,2,2-trifluoroethyl)pyrazol-4-yl]indazol-6-yl]-3,5-dimethyl-isoxazole]", "values": [{"measurement": "IC50", "setting": "BRD4-BD12", "result": "≤ 1", "unit": "µM"}, {"measurement": "IC50", "setting": "MV-4-11", "result": "≤ 1", "unit": "µM"}, {"measurement": "IC50", "setting": "[1]", "result": "< 10", "unit": "µM"}]}, {"smiles": "[2H]C([2H])(C1CCC(F)(F)CC1)n1nc(-c2cnn(CC(F)(F)F)c2)c2ncc(-c3c(C)noc3C)cc21", "note": "[Compound P-2085, 4-[1-[dideuterio-(4,4-difluorocyclohexyl)methyl]-3-[1-(2,2,2-trifluoroethyl)pyrazol-4-yl]pyrazolo[4,3-b]pyridin-6-yl]-3,5-dimethyl-isoxazole]", "values": [{"measurement": "IC50", "setting": "BRD4-BD12", "result": "≤ 1", "unit": "µM"}, {"measurement": "IC50", "setting": "MV-4-11", "result": "≤ 1", "unit": "µM"}, {"measurement": "IC50", "setting": "[1]", "result": "< 10", "unit": "µM"}]}, {"smiles": "Cc1noc(C)c1-c1cnc2ncn(C(c3ccccc3)c3ccccn3)c2c1", "note": "(stereo not drawn) [Compound P-2103, 3,5-dimethyl-4-[1-[phenyl(2-pyridyl)methyl]imidazo[4,5-b]pyridin-6-yl]isoxazole]", "values": [{"measurement": "IC50", "setting": "BRD4-BD12", "result": "≤ 1", "unit": "µM"}, {"measurement": "IC50", "setting": "MV-4-11", "result": "≤ 1", "unit": "µM"}, {"measurement": "IC50", "setting": "[1]", "result": "< 10", "unit": "µM"}]}, {"smiles": "Cc1noc(C)c1-c1cnc2cnn(CC3CCC(F)(F)CC3)c2c1", "note": "[Compound P-2079, 4-[1-[(4,4-difluorocyclohexyl)methyl]pyrazolo[4,3-b]pyridin-6-yl]-3,5-dimethyl-isoxazole]", "values": [{"measurement": "IC50", "setting": "BRD4-BD12", "result": "≤ 1", "unit": "µM"}, {"measurement": "IC50", "setting": "MV-4-11", "result": "≤ 1", "unit": "µM"}, {"measurement": "IC50", "setting": "[1]", "result": "< 10", "unit": "µM"}]}, {"smiles": "[2H]C([2H])(C1CCC(F)(F)CC1)n1ccc2ncc(-c3nn(C(F)F)nc3C)nc21", "note": "[Compound P-2042]", "values": [{"measurement": "IC50", "setting": "BRD4-BD12", "result": "1 to 10", "unit": "µM"}, {"measurement": "IC50", "setting": "MV-4-11", "result": "10 to 200", "unit": "µM"}, {"measurement": "IC50", "setting": "[1]", "result": "< 10", "unit": "µM"}]}, {"smiles": "[2H]C([2H])(C1CCC(F)(F)CC1)n1ccc2ncc(-c3c(C)noc3C)nc21", "note": "[Compound P-2038, 4-[5-[dideuterio-(4,4-difluorocyclohexyl)methyl]pyrrolo[2,3-b]pyrazin-3-yl]-3,5-dimethyl-isoxazole]", "values": [{"measurement": "IC50", "setting": "BRD4-BD12", "result": "≤ 1", "unit": "µM"}, {"measurement": "IC50", "setting": "MV-4-11", "result": "1 to 10", "unit": "µM"}, {"measurement": "IC50", "setting": "[1]", "result": "< 10", "unit": "µM"}]}, {"smiles": "Cc1noc(C)c1-c1cnc2c(-c3cnn(C)c3)nn(CC3CCC(F)(F)CC3)c2c1", "note": "[Compound P-2081, 4-[1-[(4,4-difluorocyclohexyl)methyl]-3-(1-methylpyrazol-4-yl)pyrazolo[4,3-b]pyridin-6-yl]-3,5-dimethyl-isoxazole]", "values": [{"measurement": "IC50", "setting": "BRD4-BD12", "result": "≤ 1", "unit": "µM"}, {"measurement": "IC50", "setting": "MV-4-11", "result": "≤ 1", "unit": "µM"}, {"measurement": "IC50", "setting": "[1]", "result": "< 10", "unit": "µM"}]}, {"smiles": "Cc1noc(C)c1-c1ccc2c(I)nn([C@@H](C)c3ccccn3)c2c1", "note": "[Compound P-2010, 4-[3-iodo-1-[(1S)-1-(2-pyridyl)ethyl]indazol-6-yl]-3,5-dimethyl-isoxazole]", "values": [{"measurement": "IC50", "setting": "BRD4-BD12", "result": "≤ 1", "unit": "µM"}, {"measurement": "IC50", "setting": "MV-4-11", "result": "≤ 1", "unit": "µM"}, {"measurement": "IC50", "setting": "[1]", "result": "< 10", "unit": "µM"}]}, {"smiles": "Cc1noc(C)c1-c1cnc2[nH]cc(CC3CCC(F)(F)CC3)c2n1", "note": "[Compound P-2077, 4-[7-[(4,4-difluorocyclohexyl)methyl]-5H-pyrrolo[2,3-b]pyrazin-2-yl]-3,5-dimethyl-isoxazole]", "values": [{"measurement": "IC50", "setting": "BRD4-BD12", "result": "1 to 10", "unit": "µM"}, {"measurement": "IC50", "setting": "MV-4-11", "result": "1 to 10", "unit": "µM"}, {"measurement": "IC50", "setting": "[1]", "result": "< 10", "unit": "µM"}]}, {"smiles": "Cc1noc(C)c1-c1ccc2c(-c3cnn(C)c3)nn(CC3CCC(F)(F)CC3)c2c1", "note": "[Compound P-2001, 4-[1-[(4,4-difluorocyclohexyl)methyl]-3-(1-methylpyrazol-4-yl)indazol-6-yl]-3,5-dimethyl-isoxazole]", "values": [{"measurement": "IC50", "setting": "BRD4-BD12", "result": "≤ 1", "unit": "µM"}, {"measurement": "IC50", "setting": "MV-4-11", "result": "≤ 1", "unit": "µM"}, {"measurement": "IC50", "setting": "[1]", "result": "< 10", "unit": "µM"}]}]}
